Assays:
[1] = Antihypertensive activity: arterial blood pressure and heart rate in anesthetized mongrel dogs (i.v.); type: in vivo
Description: Mongrel dogs (male and female) are anesthetized with phenobarbital (30 mg/kg i.v.) and then placed in artificial respiration (Bird Mark VII respirator). Arterial blood pressure is measured by means of a catheter placed in the abdominal aorta via the femoral artery. This catheter is connected to a pressure cell (Statham® R23 D6) linked to a recorder.
Heart rate is measured by means of a Gould Biotach®.
Sympathetic nervous activity is recorded from the renal nerve by means of a silver electrode. The amplified signal is visualized on an oscilloscope (Tektronix 5115®) and then measured in μV by means of a Gould integrator.

[2] = dog, in vivo; cited from earlier work
[3] = system: 5-HT1A receptors; conditions: European Journal of Pharmacology, (1988), 149, p. 213-223; cited from earlier work

## O=C(NCCN1CCN(c2cccc3c2OC[C@H](CO)O3)CC1)c1ccc(F)cc1 (racemic) [Flesinoxan, racemic]
[1]; 10 μg/kg i.v.
  Effect on arterial blood pressure: 0 mm/Hg
  Effect on heart rate: 0 Beats/min.
[1]; 30 μg/kg i.v.
  Effect on heart rate: 0 Beats/min.

## O=C(NCCN1CCN(c2cccc3c2OC[C@H](CO)O3)CC1)c1ccc(F)cc1 (single isomer, unassigned) [Flesinoxan, (+) isomer]
[2]
  Relative activity of flesinoxan isomers: the more active isomer

## O=C(NCCN1CCN(c2cccc3c2OC[C@H](CO)O3)CC1)c1ccc(F)cc1 [flesinoxan]
[3]
  5-HT1A receptor agonist activity, antihypertensive properties: antihypertensive properties due to its 5-HT1A receptor agonist activity

Source: US5143916A, “Naphthylpiperazines useful as 5-HT1A receptor ligands” (Adir et Compagnie, priority 1989, dated 1992)
